This note sets out measurements from patent publication US8088805B2, “Inhibitors of histone deacetylase” (MethylGene Inc., priority 2004, dated 2012).

Some results are limits rather than exact numbers.

The target in experiment [1] is T1, cloned recombinant human HDAC-1 enzyme (Homo sapiens, UniProt Q13547).
T1 construct: made in house; host or cells: Baculovirus insect cell expression system
The experiment can be described thus: HDAC-1 enzymatic inhibition, Assay 1 ([3H]-acetylated histone substrate). Conditions: Assay 1: [3H]-labeled acetylated histone substrate, recombinant hHDAC-1. It counts as biochemical. Here is the method:
Assay 1. HDAC inhibitors were screened against a cloned recombinant human HDAC-1 enzyme expressed and purified from a Baculovirus insect cell expression system. For deacetylase assays, 20,000 cpm of the [^3H]-metabolically labeled acetylated histone substrate (M. Yoshida et al., J. Biol. Chem. 265(28): 17174-17179 (1990)) was incubated with 30 μg of the cloned recombinant hHDAC-1 for 10 minutes at 37° C. The reaction was stopped by adding acetic acid (0.04 M, final concentration) and HCl (250 mM, final concentration). The mixture was extracted with ethyl acetate and the released [^3H]-acetic acid was quantified by scintillation counting. For inhibition studies, the enzyme was preincubated with compounds at 4° C. for 30 minutes prior to initiation of the enzymatic assay. IC50 values for HDAC enzyme inhibitors were determined by performing dose response curves with individual compounds and determining the concentration of inhibitor producing fifty percent of the maximal inhibition.
(§1) Assay 1 was used to measure HDAC activity of compounds 10c, 13e, 16d, 26b, 44, 47, 61a, 61b, 63, 134, 138, and 308. Assay 2 was used to measure HDAC activity of compounds 361, 366, 367, 368, 369, 370, 371, 372, 373, 374, 375, 376, 377, and 378. In Table 14, “a” indicates activity of ≦0.1 μM, “b” indicates activity of ≦1 μM, “c” indicates activity of ≦5 μM, and “d” indicates activity of >5 μm. For the H4-Ac T24 EC vs. MS-275 assay in Table 14, “u” indicates less than 1, “v” indicates 1, and “w” indicates greater than 1. For the H3 Ac t24 assay in Table 14, “x” indicates activity of ≦1 μM, “y” indicates activity of ≦10 μM, and “z” indicates activity of ≦20 μM.

The subject of another experiment is HCT116 cells. The experiment can be described thus: MTT assay. The settings on record: Homo sapiens, HCT-116, 72 hours. It counts as cell-based. Here is the method: HCT116 cells (2000/well) were plated into 96-well tissue culture plates one day before compound treatment. Compounds at various concentrations were added to the cells. The cells were incubated for 72 hours at 37° C. in 5% CO2 incubator. MTT (3-[4,5-dimethylthiazol-2-yl]-2,5diphenyl tetrazolium bromide, Sigma) was added at a final concentration of 0.5 mg/ml and incubated with the cells for 4 hours before one volume of solubilization buffer (50% N,N-dimethylformamide, 20% SDS, pH 4.7) was added onto the cultured cells. After overnight incubation, solubilized dye was quantified by colorimetric reading at 570 nM using a reference at 630 nM using an MR700 plate reader (Dynatech Laboratories Inc.). OD values were converted to cell numbers according to a standard growth curve of the relevant cell line. The concentration which reduces cell numbers to 50% of that of solvent treated cells is determined as MTT IC50. In Table 14, “a” indicates activity of ≦0.1 μM, “b” indicates activity of ≦1 μM, and “c” indicates activity of ≦5 μM.

The subject of experiment [2] is Histone H4 acetylation in T24 human bladder cancer cells. The experiment can be described thus: Histone H4 acetylation in whole cells by immunoblots. It counts as cell-based. The settings on record: ratio of EC50 of compound to EC50 of control MS-275, 16 h. As to the method: T24 human bladder cancer cells growing in culture were incubated with HDAC inhibitors for 16 h. Histones were extracted from the cells after the culture period as described by M. Yoshida et al. (J. Biol. Chem. 265(28): 17174-17179 (1990)). […] of total histone protein was loaded onto SDS/PAGE and transferred to nitrocellulose membranes. Membranes were probed with polyclonal antibodies specific for acetylated histone H-4 (Upstate Biotech Inc.), followed by horse radish peroxidase conjugated secondary antibodies (Sigma). Enhanced Chemiluminescence (ECL) (Amersham) detection was performed using Kodak films (Eastman Kodak). Acetylated H-4 signal was quantified by densitometry. Data are presented as the ratio of the concentration effective for […] the acetylated H-4 signal by 50% (EC50) using the indicated compound of the invention to a control compound, MS-275. If the indicated ratio is 1, then the compound of the invention is as effective as the MS-275 control compound. […] Further information regarding the MS-275 compound can be found in Suzuki et al., J. Med. Chem. 1999, pp. 3001-3003.

In another experiment the target is Human HDAC-1 (Homo sapiens, UniProt Q13547). The experiment in a line: HDAC-1 enzymatic inhibition, Assay 2 (Boc-Lys(Ac)-AMC, Fluor-de-Lys). It counts as biochemical. Conditions: Assay 2: Boc-Lys(Ac)-AMC substrate, fluorescence; read-out: HDAC1 IC50. As to the method: Assay 2. The following protocol was also used to assay the compounds of the invention. In the assay, the buffer used was 25 mM HEPES, pH 8.0, 137 mM NaCl, 2.7 mM KCl, 1 mM MgCl2 and the substrate was Boc-Lys(Ac)-AMC in a 50 mM stock solution in DMSO. The enzyme stock solution was 4.08 μg/mL in buffer. The compounds were pre-incubated (2 μl in DMSO diluted to 13 μl in buffer for transfer to assay plate) with enzyme (20 μl of 4.08 μg/ml) for 10 minutes at room temperature (35 μl pre-incubation volume). The mixture was pre-incubated for 5 minutes at room temperature. The reaction was started by bringing the temperature to 37° C. and adding […] substrate. Total reaction volume was 50 μl. The reaction was stopped after 20 minutes by addition of 50 μl developer, prepared as directed by Biomol (Fluor-de-Lys developer, Cat. # KI-105). A plate was incubated in the dark for 10 minutes at room temperature before reading (λEx=360 nm, λEm=470 nm, Cutoff filter at 435 nm).
as §1

T1 sequence (Q13547 whole entry): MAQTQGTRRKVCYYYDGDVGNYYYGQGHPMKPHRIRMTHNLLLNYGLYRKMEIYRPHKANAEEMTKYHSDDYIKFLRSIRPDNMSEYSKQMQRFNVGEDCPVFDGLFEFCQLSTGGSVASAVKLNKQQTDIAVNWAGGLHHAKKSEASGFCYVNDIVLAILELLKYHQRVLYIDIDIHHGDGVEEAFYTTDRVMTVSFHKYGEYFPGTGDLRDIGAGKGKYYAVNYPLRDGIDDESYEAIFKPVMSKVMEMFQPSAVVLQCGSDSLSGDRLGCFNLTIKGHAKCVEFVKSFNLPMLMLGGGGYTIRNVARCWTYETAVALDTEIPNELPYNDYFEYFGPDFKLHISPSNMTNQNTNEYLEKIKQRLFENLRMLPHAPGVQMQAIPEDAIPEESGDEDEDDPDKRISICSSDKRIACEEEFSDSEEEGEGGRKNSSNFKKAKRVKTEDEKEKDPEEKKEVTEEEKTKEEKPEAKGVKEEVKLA
Human HDAC-1, sequence (Q13547 whole entry): as above

On to `COc1cccc(CCNc2ccnc(NCc3ccc(C(=O)Nc4ccccc4N)cc3)n2)c1` [10c, N-(2-Amino-phenyl)-4-({4-[2-(3-methoxy-phenyl)-ethylamino]-pyrimidin-2-ylamino}-methyl)-benzamide], for which the concentration for half-maximal inhibition (IC50) fell in the range of 1000 to 5000 nM in experiment [1] and 100 to 1000 nM in the experiment with HCT116 cells. For the same molecule, the “H4-Ac T24 EC vs. MS-275” value in experiment [2] was “v (“v” indicates 1)”.
The corresponding values for `Nc1ccccc1NC(=O)c1ccc(CNc2ncc(-c3cccnc3)cn2)cc1` [13e, N-(2-Amino-phenyl)-4-[(5-pyridin-3-yl-pyrimidin-2-ylamino)-methyl]-benzamide] are 1000 to 5000 nM, 100 to 1000 nM and “v (“v” indicates 1)”.
With `Nc1ccccc1NC(=O)c1ccc(CNc2nccc(-c3ccc(F)c(F)c3)n2)cc1` [16d, N-(2-Amino-phenyl)-4-{[4-(3,4-difluoro-phenyl)-pyrimidin-2-ylamino]-methyl}-benzamide], the half-maximal inhibitory concentration (IC50) (in experiment [1]; in the experiment with HCT116 cells) was 100 to 1000 nM each time. Besides, the “H4-Ac T24 EC vs. MS-275” value in experiment [2] is listed as “v (“v” indicates 1)”.
Take `CSc1nc(NCc2ccc(C(=O)Nc3ccccc3N)cc2)cc(-c2cccnc2)n1` [61a, N-(2-Amino-phenyl)-4-[(2-methylsulfanyl-6-pyridin-3-yl-pyrimidin-4-ylamino)-methyl]-benzamide]: the IC50 in experiment [1] is 1000 to 5000 nM; in the experiment on HCT116 cells, ≤ 100 nM. In addition, the “H4-Ac T24 EC vs. MS-275” value in experiment [2] was “v (“v” indicates 1)”.
The corresponding values for `Nc1ccccc1NC(=O)c1ccc(CNc2cc(-c3cccnc3)ncn2)cc1` [61b, N-(2-Amino-phenyl)-4-[(6-pyridin-3-yl-pyrimidin-4-ylamino)-methyl]-benzamide] are 1000 to 5000 nM, ≤ 100 nM and “u (“u” indicates less than 1)”.
The like results for `Nc1ccccc1NC(=O)c1ccc(CNc2nccc(-c3ccc(CN4CCOCC4)cc3)n2)cc1` [compound 44, N-(2-Amino-phenyl)-4-{[4-(4-morpholin-4-ylmethyl-phenyl)-pyrimidin-2-ylamino]-methyl}-benzamide] were, in that order, 1000 to 5000 nM, ≤ 100 nM and “v (“v” indicates 1)”.
With `Nc1ccccc1NC(=O)c1ccc(CNc2ccnc(-c3cccnc3)n2)cc1` [compound 47, N-(2-Amino-phenyl)-4-[(2-pyridin-3-yl-pyrimidin-4-ylamino)-methyl]-benzamide], the figures for the IC50 (in experiment [1]; in the experiment with HCT116 cells) were 1000 to 5000 nM and 100 to 1000 nM, respectively. In experiment [2], the “H4-Ac T24 EC vs. MS-275” value is on record as “u (“u” indicates less than 1)”.
In the case of `Nc1ccccc1NC(=O)c1ccc(CNc2cncc(-c3cccnc3)n2)cc1` [compound 63, N-(2-Amino-phenyl)-4-[(6-pyridin-3-yl-pyrazin-2-ylamino)-methyl]-benzamide], the IC50 in experiment [1] is 1000 to 5000 nM; in the experiment with HCT116 cells it was 100 to 1000 nM. The “H4-Ac T24 EC vs. MS-275” value in experiment [2] is recorded as “v (“v” indicates 1)”.
The corresponding values for `Nc1ccccc1NC(=O)c1ccc(CNc2nc3ccc(O)cc3s2)cc1` [compound 134, N-(2-Amino-phenyl)-4-[(6-hydroxy-benzothiazol-2-ylamino)-methyl]-benzamide] are 1000 to 5000 nM, 100 to 1000 nM and “u (“u” indicates less than 1)”.
The like results for `COc1cc(NCc2ccc3oc(C(=O)Nc4ccccc4N)cc3c2)cc(OC)c1OC` [compound 308, 5-[(3,4,5-Trimethoxy-phenylamino)-methyl]-benzofuran-2-carboxylic acid (2-amino-phenyl)-amide] were, in that order, 1000 to 5000 nM, 100 to 1000 nM and “w (“w” indicates greater than 1)”.
As for `Nc1ccccc1NC(=O)c1ccc(N2CC[C@@H](Oc3cccnc3)C2)cc1` [compound 368, (R)—N-(2-Aminophenyl)-4-(3-(pyridin-3-yloxy)pyrrolidin-1-yl)benzamide], the IC50 in the experiment with HCT116 cells and at Human HDAC-1 was 100 to 1000 nM each time.
On to `Nc1ccccc1NC(=O)c1ccc(N2CC[C@@H](Nc3ccccc3)C2)cc1` [compound 370, (R)—N-(2-Aminophenyl)-4-(3-(phenylamino)pyrrolidin-1-yl)benzamide], for which the IC50 in the experiment with HCT116 cells and at Human HDAC-1 was 1000 to 5000 nM in each case.
`Nc1ccccc1NC(=O)c1ccc(N2CC[C@H](Oc3ccccc3)C2)cc1` [compound 371, (S)—N-(2-Aminophenyl)-4-(3-phenoxypyrrolidin-1-yl)benzamide]: the IC50 in the experiment on HCT116 cells and at Human HDAC-1 was 100 to 1000 nM each time.
Take `COC(=O)c1ccc(O[C@H]2CCN(c3ccc(C(=O)Nc4ccccc4N)cc3)C2)cc1` [compound 372, (S)-Methyl-4-(1-(4-(2-aminophenylcarbamoyl)phenyl)pyrrolidin-3-yloxy)benzoate]: the results for the IC50 in the experiment with HCT116 cells and at Human HDAC-1 were 100 to 1000 nM and ≤ 100 nM, respectively.
Take `Nc1ccccc1NC(=O)c1ccc(N2CC[C@H](Oc3ccc(C(=O)O)cc3)C2)cc1` [compound 373, (S)-4-(1-(4-(2-Aminophenylcarbamoyl)phenyl)pyrrolidin-3-yloxy)benzoic acid]: the IC50 with HCT116 cells was > 5000 nM; at Human HDAC-1 it was 100 to 1000 nM.
Take `Nc1ccccc1NC(=O)c1ccc(N2CC[C@H](Oc3ccc(Oc4ccccc4)cc3)C2)cc1` [compound 376, (S)—N-(2-Aminophenyl)-4-(3-(4-phenoxyphenoxy)pyrrolidin-1-yl)benzamide]: the IC50 with HCT116 cells and on Human HDAC-1 was 1000 to 5000 nM throughout.
In the case of `Nc1ccccc1NC(=O)c1ccc(N2CC[C@H](Oc3ccc([N+](=O)[O-])cc3)C2)cc1` [compound 377, (S)—N-(2-Aminophenyl)-4-(3-(4-nitrophenoxy)pyrrolidin-1-yl)benzamide], the IC50 in the experiment with HCT116 cells and on Human HDAC-1 was 100 to 1000 nM in each case.
